Results reported in patent US20240368605A1, “USE OF SPLICE SWITCHING OLIGONUCLEOTIDES FOR EXON SKIPPING-MEDIATED KNOCKDOWN OF PIM2” (INSTITUT NATIONAL DE LA SANTÉ ET DE LA RECHERCHE MÉDICALE, priority 2021, published 2024).

Key:
PBs [1] = test: Mitochondria/Caspase 3-driven apoptosis and viability of PBs; type: cell-based, human
Description: Mitochondrial-driven cell death is activated once the mitochondria lose the ability to maintain the inner membrane potential, resulting in the release of proapoptotic proteins into the cytosol. Commitment towards PBs is sustained by an extensive reconfiguration of the epigenetic landscape and of gene expression patterns, both showing that the most prominent function involves cell death and survival (Caron et al., 2015). […] We then investigated the different cell subsets generated through the differentiation model at the protein level for factors involved in apoptosis triggered by mitochondria (data not shown). The PBs compared to all other subsets increased the expression of pBAD and XIAP, both proteins counteract the apoptotic pathway and were described in PIM2-induced survival effect (data not shown) (Fox, 2003; Macdonald et al., 2006; Yan et al., 2003). In accordance with this finding and despite a strong increase in procaspase 3 protein (32 kDa size), PBs decrease the autocatalytic activity of Caspase 3 and therefore the production of p19/p17 apoptosis executors as highlighted by the low levels of cleaved PARP (data not shown) (Ponder and Boise, 2019). […] In addition, we found in P2/CD23+ cells a complete degradation of PARP which illustrate the fact that the apoptosis process is consubstantially associated with the B cell terminal differentiation if cells are not otherwise protected (data not shown).
We then inhibited PIM2 which led to an intense activation of Caspase 3 and a decrease of viability of PBs. The latter was rescued by the Caspase 3 inhibitor Q-DEVD-OPH (data not shown).
(§1) The differentiation of immature monocytes is associated with a relocalization of nuclear p21^Cip1/WAF1 to the cytoplasm where the protein participates to apoptosis blockage (Asada, 1999). In addition, Suzuki et al. ascribed the formation of a Procaspase 3/p21^Cip1/WAF1 complex in the context of resistance to Fas-mediated cell death owing to the phosphorylation of p21 by protein kinase A (Suzuki et al., 2000). We wanted therefore to explore whether p21^Cip1/WAF1 may bind Procaspase 3 and developed to this end a FRET approach which detected a signal of energy transfer compatible with such physical interaction. […] We then confirmed the binding between p21^Cip1/WAF1 and Caspase 3 in XG21 cells and in PBs by IP (data not shown). Finally, to confirm the anti-apoptotic role of cytoplasmic p21^Cip1/WAF1 in PBs we inhibited p21^Cip1/WAF1 expression by a siRNA targeting CDKN1A in in vitro D4 B cells (data not shown) and found an activation of the execution of apoptosis characterized by the detection of the p17-fragment cleavage of caspase 3 in parallel to the cleavage of PARP (data not shown) and similar results were found in XG21 cells (data not shown). […] The role of PIM2 is to stabilize p21^Cip1/WAF1 protein in the cytoplasm allowing therefore the formation a multiprotein complex which inhibits Caspase 3 full activation (data not shown).

PBs [2] = test: Number of PBs in S-phase of the cell cycle; type: cell-based, human
Description: (§2) Since PIM2 acts at multiple cellular levels, we wanted to investigate how this kinase impacts this step of the differentiation. […] To explore this hypothesis, we investigated the G1/S transition of the cell cycle by using the multiple myeloma-derived cell line XG21 which presents an IL-6/STAT3-dependent PIM2 expression and proliferation (data not shown). To this end, we established a double thymidine block to arrest cells in G1-phase, and then released thymidine before subsequent cell cycle analysis. […] In presence of PIM2 blockade regardless of the type of inhibition, cells remained largely arrested in G1 phase until 16 h before starting to die (data not shown). The transition of G1 to S phase of the cell cycle requires the phosphatase CDC25A. We found a significant increase of CDC25A gene expression in PBs compared to CD23+ aBC and chemical inhibition of the phosphatase led to a dramatic decrease of the number of PBs in S phase (data not shown). We then wondered whether PIM2 has an effect on CDC25A as described for PIM1 which increased the catalytic activity after its binding to the phosphatase (Mochizuki et al., 1999). By western blot we detected CDC25A protein in PBs which disappeared in presence of PIMi (data not shown). PIM2 blockade led also to the downregulation of CDC25A and MKI67 gene expression (data not shown).

CDC25A = CDC25A protein in PBs by western blot; type: cell-based, human
Description: as §2

p21^Cip1/WAF1 [3] = test: CDKN1A gene and p21^Cip1/WAF1 protein expression in PBs; type: cell-based, human; conditions: PBs treated conjointly by MG-132 and PIMi
Description: (§3) Like p27^Kip1, p21^Cip1/WAF1 is a tight-binding inhibitor of CDKs and inhibits cell cycle entry into S phase (Elledge et al., 1996). Plasmablast commitment leads to a significant increase of the CDKN1A gene, which encodes p21^Cip1/WAF1, and this independently to the expression of TP53 (data not shown). […] We then wondered whether PIM2 could modify p21^Cip1/WAF1 expression. […] To address this scenario, we developed endogenous protein immunoprecipitation (IP) and found in generated PBs and XG21 cell line as well that PIM2, p21^Cip1/WAF1 and HSP90β form a cytoplasmic multiprotein complex (data not shown).

p21^Cip1/WAF1 [4] = test: p21^Cip1/WAF1 protein expression in XG21 cells; type: cell-based, human; conditions: XG21 cells treated conjointly by MG-132 and PIMi
Description: as §3

[5] = tested on: p21^Cip1/WAF1/Procaspase 3 complex; test: FRET between p21^Cip1/WAF1 and Procaspase 3; type: cell-based; conditions: added to the cell culture
Description: as §1

ePCs = test: Apoptosis markers in early plasma cells (ePCs) by western blot; type: cell-based, human
Description: Plasma cell maturation is a continuum that spans from PBs to fully mature PCs corresponding to long-lived PCs such as those residing in the bone marrow (BM) PC niche where their survival depends on various extrinsic factors. […] We then explored PIM2 expression at the protein level in CD138^+ or BCMA^+ PCs on BM biopsies from patients free from malignant hemopathies obtained from the Pathology department of our institution (F. Llamas-Gutierrez). Single staining was firstly tested by chromogenic immunohistochemistry (CIH) or immunofluorescence (IF) on paraffin-embedded tissue sections followed by multiple staining by IF. Both, CD138 and BCMA staining allowed to identify PCs with, in some areas, high number of positive cells that possibly were close from CD41-positive megakaryocytes and enriched for IL-6 expression (data not shown). In addition, all observed BM PCs expressed PIM2 with a strong intensity (data not shown). To determine the regulation and functional contribution of PIM2 in mature PCs, we produced CD38^hi/CD138^+ PCs by leaving D7 to D10 generated PBs in culture media containing IL-2, IL-10, IL-6 and IFN-alpha (data not shown). Under this condition, the number of CD138^+ cells increased progressively while the number of cells in S-phase of the cell cycle decreased gradually with, respectively, 60.3±8.1% and 3.5±0.3% at D10 (data not shown). In parallel, cells decreased and increased, respectively, the expression of CDC25A and CDKN1B with for the latter, p27^Kip1 protein exclusively detectable in the nucleus at D10 as expected for fully differentiated cells arrested in the cell cycle (data not shown). […] In addition, in these cells, compared to PBs, we observed an increase of PIM2 gene expression as well as its protein level (data not shown).
We then investigated the other factors described above at the protein levels and detected by western blot in ePCs compared to PBs—and besides p27^Kip1 and PIM2—a significant elevation of Caspase 3 and p21^Cip1/WAF1 protein expression (data not shown).

MM = test: Combinations of increasing drug-concentration of PIM inhibitor and MCL1 inhibitor; type: cell-based; conditions: increasing concentrations of both drugs
[6] = tested on: activated B cells diverted from the PB commitment; test: Apoptosis of activated B cells diverted from the PB commitment at D6; type: cell-based, human; conditions: D6, original in vitro model
Description: Mitochondrial-driven cell death is activated once the mitochondria lose the ability to maintain the inner membrane potential, resulting in the release of proapoptotic proteins into the cytosol. Commitment towards PBs is sustained by an extensive reconfiguration of the epigenetic landscape and of gene expression patterns, both showing that the most prominent function involves cell death and survival (Caron et al., 2015). […] We then investigated the different cell subsets generated through the differentiation model at the protein level for factors involved in apoptosis triggered by mitochondria (data not shown). The PBs compared to all other subsets increased the expression of pBAD and XIAP, both proteins counteract the apoptotic pathway and were described in PIM2-induced survival effect (data not shown) (Fox, 2003; Macdonald et al., 2006; Yan et al., 2003). In accordance with this finding and despite a strong increase in procaspase 3 protein (32 kDa size), PBs decrease the autocatalytic activity of Caspase 3 and therefore the production of p19/p17 apoptosis executors as highlighted by the low levels of cleaved PARP (data not shown) (Ponder and Boise, 2019). […]

XG21 = test: Caspase 3 activation in XG21; type: cell-based, human
Description: as §1

MM cell lines = test: PIM2 protein expression and drug effects in MM cell lines; type: cell-based, human; conditions: western blot, after proteasome inhibition
Description: Using data of the Dependency Map (DepMap) portal (https://depmap.org/portal/), we evaluated mRNA expression of PIM2 in silico across >700 different malignant cell lines, including 20 MM cell lines. […] This was specific to PIM2, as PIM1 expression is not overexpress in MM cell lines (data not shown). We confirm the high expression of PIM2 protein in eight MM lines, which correlates well with RNA expression, noting however a large heterogeneity of expression (data not shown) Also, using CRISPR screening of DepMap data, dependency scores of PIM2 underline their specific importance for MM cell survival compared to all cell lines tested, and as compared to PIM1 data not shown). To evaluate potential correlations between PIM2 expression and clinicals outcomes, we analyzed TT2 cohort of the university of Arkansas and within the myeloma patient molecular subgroups. […] Our analysis of the CoMMpass cohort also as PIM2 expression above the cutoff (determined by MaxStat method) in the large dataset correlated with shorter overall survival (P=0.000573) (data not shown). […] These last result fit well with the fact that PIM2 protein expression increase after proteasome inhibition with drug as carfilzomib as show by western blot in MM cell lines (data not shown), leading to an increase of their prosurvival activity as shown described (Adam et al., 2015).

With `N[C@@H]1CCCN(c2c(/C=C3\SC(=O)NC3=O)cccc2-c2ccccc2)C1` [PIMi, AZD1208] the “cleaved PARP protein” value (PBs [1]; PBs) was “production of cleaved PARP protein”, the mitochondrial depolarization (PBs [1]; PBs) was “strong mitochondrial depolarization” and the “pBAD and XIAP protein” value (PBs [1]; PBs) was “decrease of pBAD and XIAP”. For the same compound, the “number of PBs in S-phase” value (PBs [2]) was “decreased drastically, in a dose-dependent manner”, the “CDC25A protein in PBs” value (CDC25A) was “disappeared” and the “p21^Cip1/WAF1 expression” value (p21^Cip1/WAF1 [3]) was “maintained their p21^Cip1/WAF1 expression but in a poly-ubiquitinylated form”. For the same compound, the “p21^Cip1/WAF1 expression” value (p21^Cip1/WAF1 [4]) was “maintained their p21^Cip1/WAF1 expression but in a poly-ubiquitinylated form”, the “FRET signal of energy transfer p21^Cip1/WAF1 / Procaspase 3” value [5] was “abolished the signal” and the “Caspase 3 activation” value (ePCs) was “activation of Caspase 3 with production of the catalytic active p17 fragment”. For the same compound, the XIAP protein (ePCs) was “decrease of XIAP protein”, the “cleaved-Caspase 9 fragment” value (ePCs) was “increase of cleaved-Caspase 9 fragment” and the “p21^Cip1/WAF1 expression” value (ePCs) was “decrease of p21^Cip1/WAF1 expression”. For the same compound, the “synergy of the combination AZD1208 and AZD5991” value (MM) was “hard synergy”.
In the case of `CC(C)[C@H](NC(=O)c1ccc2ccccc2n1)C(=O)N[C@@H](CC(=O)O)C(=O)COc1c(F)cccc1F` [QVD-OPH], the rescue from apoptosis [6] is reported as “rescued from apoptosis”.
With `O=C(Nc1ccc(Cl)c(C(F)(F)F)c1)NC1CCC(Oc2ccc(C(F)(F)F)cn2)CC1` (centres unmarked) [UC2288] the “Caspase 3 activation” value (PBs [1]; PBs) was “dose-dependent increase of Caspase 3 activation”, the apoptosis induction (PBs [1]; by inhibiting p21^Cip1/WAF1 protein expression) was “induced a Caspase 3-mediated apoptosis” and the “Caspase 3 activation” value (XG21) was “dose-dependent increase of Caspase 3 activation”.
With Q-DEVD-OPH the “viability of PBs after PIM2 inhibition” value (PBs [1]; Caspase 3 inhibitor added to PIM2-inhibited PBs) was “rescued” and the “cell viability after UC2288” value (PBs [1]; Caspase 3 inhibitor added to UC2288-treated cells) was “restores cell viability”.
In the case of `CC(C)C[C@H](NC(=O)[C@H](CCc1ccccc1)NC(=O)CN1CCOCC1)C(=O)N[C@@H](Cc1ccccc1)C(=O)N[C@@H](CC(C)C)C(=O)[C@@]1(C)CO1` [carfilzomib], the PIM2 protein expression (MM cell lines) is reported as “increase”.
